Ki data for 29 compounds are collected here from patent US10988459B2 (priority 2015, dated 2021).

The target of this assay is human RIP1 kinase domain (2-375) (Homo sapiens (Human), UniProt Q13546). Nature of the assay: biochemical. It counts as biochemical. Put shortly: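 Ki^app comes from Morrison tight-binding fits of fractional activity versus compound concentration. Activity was read as ADP production, via tracer displacement lowering fluorescence polarization (633 nm laser). Conditions: 2 h, 50 nM insect-cell-expressed enzyme, 50 uM ATP, 30 mM MgCl2, 1 mM DTT, 0.5% DMSO, pH 7.5 Hepes.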

The mark [1] stands for this setting: human RIP1 kinase domain (2-375), 50 uM ATP, 2 hours incubation, Transcreener ADP assay, read-out: RIP1 Ki.

Like-named read-outs stand apart in the source and are kept apart here.

As a reminder, the Ki is a measure of affinity in units of concentration, obtained from inhibition or displacement.

Chain of human RIP1 kinase domain (2-375) (Q13546 2-375): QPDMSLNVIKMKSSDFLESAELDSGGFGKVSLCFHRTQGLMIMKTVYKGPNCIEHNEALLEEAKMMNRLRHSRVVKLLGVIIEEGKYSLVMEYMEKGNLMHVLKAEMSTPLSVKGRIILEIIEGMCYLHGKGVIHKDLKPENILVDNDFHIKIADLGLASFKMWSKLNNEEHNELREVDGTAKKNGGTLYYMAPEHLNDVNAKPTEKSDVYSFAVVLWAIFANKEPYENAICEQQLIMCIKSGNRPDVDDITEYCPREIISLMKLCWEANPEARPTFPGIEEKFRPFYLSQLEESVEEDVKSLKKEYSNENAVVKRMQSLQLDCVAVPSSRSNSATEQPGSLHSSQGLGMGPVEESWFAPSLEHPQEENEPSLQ

For the compound `CN1C(=O)[C@@H](NC(=O)c2ncn(Cc3ccccc3)n2)CCn2nc(C(F)(F)F)cc21` [Example 91, (S)-1-benzyl-N-(4-methyl-5-oxo-2-(trifluoromethyl)-5,6,7,8-tetrahydro-4H-pyrazolo[1,5-a][1,3]diazepin-6-yl)-1H-1,2,4-triazole-3-carboxamide], the Ki under setting [1] was determined as 27.1 nM. Consider `CN1C(=O)[C@@H](NC(=O)c2n[nH]c3ccc(C4CC4)cc23)COc2ccccc21` [Example 92, (S)-5-cyclopropyl-N-(5-methyl-4-oxo-2,3,4,5-tetrahydrobenzo[b][1,4]oxazepin-3-yl)-1H-indazole-3-carboxamide], for which the Ki under setting [1] is 12.9 nM. `CN1C(=O)C(NC(=O)c2nnc(Cc3ccccc3)[nH]2)CCCn2nccc21` (centres unmarked) [Example 93, 5-benzyl-N-(4-methyl-5-oxo-4,5,6,7,8,9-hexahydropyrazolo[1,5-a][1,3]diazocin-6-yl)-4H-1,2,4-triazole-3-carboxamide]: the inhibitory constant (Ki) under setting [1] is 381 nM. Take `CN1C(=O)C(NC(=O)c2ncn(Cc3ccccc3)n2)CCCn2nccc21` (centres unmarked) [Example 94, 1-benzyl-N-(4-methyl-5-oxo-4,5,6,7,8,9-hexahydropyrazolo[1,5-a][1,3]diazocin-6-yl)-1H-1,2,4-triazole-3-carboxamide]: the Ki under setting [1] came out at 92.5 nM. Regarding `CC(c1ccccc1)c1nnc(C(=O)NC2CCCn3nccc3N(C)C2=O)[nH]1` (centres unmarked) [Example 95, N-(4-methyl-5-oxo-4,5,6,7,8,9-hexahydropyrazolo[1,5-a][1,3]diazocin-6-yl)-5-(1-phenylethyl)-4H-1,2,4-triazole-3-carboxamide], under setting [1], the Ki is 4300 nM.

As to `CN1C(=O)C(NC(=O)c2nnc(Cc3ccc(F)cc3)[nH]2)CCCn2nccc21` (centres unmarked) [Example 96, 5-(4-fluorobenzyl)-N-(4-methyl-5-oxo-4,5,6,7,8,9-hexahydropyrazolo[1,5-a][1,3]diazocin-6-yl)-4H-1,2,4-triazole-3-carboxamide], the inhibition constant Ki under setting [1] was determined as 801 nM. On the same count and under the same terms, in the case of `CN1C(=O)C(NC(=O)c2nnc(Cc3cccc(F)c3F)[nH]2)CCCn2nccc21` (centres unmarked) [Example 97, 5-(2,3-difluorobenzyl)-N-(4-methyl-5-oxo-4,5,6,7,8,9-hexahydropyrazolo[1,5-a][1,3]diazocin-6-yl)-4H-1,2,4-triazole-3-carboxamide] it was 215 nM.

`CN1C(=O)[C@@H](NC(=O)c2nnc(Cc3ccc(F)cc3)[nH]2)CCn2nccc21` [Example 98, (S)-5-(4-fluorobenzyl)-N-(4-methyl-5-oxo-5,6,7,8-tetrahydro-4H-pyrazolo[1,5-a][1,3]diazepin-6-yl)-4H-1,2,4-triazole-3-carboxamide]: the Ki under setting [1] came to 70.4 nM. `CN1C(=O)[C@@H](NC(=O)c2nnc(Cc3cccc(F)c3F)[nH]2)CCn2nccc21` [Example 99, (S)-5-(2,3-difluorobenzyl)-N-(4-methyl-5-oxo-5,6,7,8-tetrahydro-4H-pyrazolo[1,5-a][1,3]diazepin-6-yl)-4H-1,2,4-triazole-3-carboxamide]: the Ki under setting [1] was determined as 34.6 nM. Turning to `CC(c1ccccc1)c1nnc(C(=O)N[C@H]2CCn3nccc3N(C)C2=O)[nH]1` (stereo partly drawn) [Example 100, N—((S)-4-methyl-5-oxo-5,6,7,8-tetrahydro-4H-pyrazolo[1,5-a][1,3]diazepin-6-yl)-5-(1-phenylethyl)-4H-1,2,4-triazole-3-carboxamide], under setting [1], the Ki turned out to be 189 nM. On to `CN1C(=O)[C@@H](NC(=O)c2cc(Oc3ccccc3)ccn2)CCn2nccc21` [Example 101, (S)—N-(4-methyl-5-oxo-5,6,7,8-tetrahydro-4H-pyrazolo[1,5-a][1,3]diazepin-6-yl)-4-phenoxypicolinamide], for which the Ki under setting [1] worked out at 189 nM.

For the compound `CN1C(=O)C(NC(=O)c2nnc(Cc3ccccc3)[nH]2)CCCn2cncc21` (centres unmarked) [Example 102, 5-benzyl-N-(1-methyl-2-oxo-1,2,3,4,5,6-hexahydroimidazo[1,5-a][1,3]diazocin-3-yl)-4H-1,2,4-triazole-3-carboxamide], the Ki under setting [1] is 335 nM.

As for `CN1C(=O)C(NC(=O)c2ncn(Cc3ccccc3)n2)CCCn2cncc21` (centres unmarked) [Example 103, 1-benzyl-N-(1-methyl-2-oxo-1,2,3,4,5,6-hexahydroimidazo[1,5-a][1,3]diazocin-3-yl)-1H-1,2,4-triazole-3-carboxamide], the Ki under setting [1] was 124 nM. Regarding `CN1C(=O)C(NC(=O)c2ncn(Cc3ccccc3)n2)CCCn2nc(C3CC3)cc21` (centres unmarked) [Example 104, 1-benzyl-N-(2-cyclopropyl-4-methyl-5-oxo-4,5,6,7,8,9-hexahydropyrazolo[1,5-a][1,3]diazocin-6-yl)-1H-1,2,4-triazole-3-carboxamide], the Ki under setting [1] was determined as 149 nM. Consider `CN1C(=O)C(NC(=O)c2nnc(Cc3ccccc3)[nH]2)CCCn2nc(C3CC3)cc21` (centres unmarked) [Example 105, 5-benzyl-N-(2-cyclopropyl-4-methyl-5-oxo-4,5,6,7,8,9-hexahydropyrazolo[1,5-a][1,3]diazocin-6-yl)-4H-1,2,4-triazole-3-carboxamide], for which the Ki under setting [1] was 262 nM. As to `CN1C(=O)[C@@H](NC(=O)c2cc3c(cn2)COC3(C)CC(F)(F)F)CCn2nccc21` (stereo partly drawn) [Example 106, 1-methyl-N—((S)-4-methyl-5-oxo-5,6,7,8-tetrahydro-4H-pyrazolo[1,5-a][1,3]diazepin-6-yl)-1-(2,2,2-trifluoroethyl)-1,3-dihydrofuro[3,4-c]pyridine-6-carboxamide], the Ki under setting [1] turned out to be 834 nM.

In the case of `Cc1cnn2c1N(C)C(=O)C(NC(=O)c1ncn(Cc3ccccc3)n1)CC2` (centres unmarked) [Example 107, 1-benzyl-N-(3,4-dimethyl-5-oxo-5,6,7,8-tetrahydro-4H-pyrazolo[1,5-a][1,3]diazepin-6-yl)-1H-1,2,4-triazole-3-carboxamide], under setting [1], the Ki is 69.7 nM. In the case of `CN1C(=O)C(NC(=O)c2nnc(Cc3ccccc3)[nH]2)CCn2nc3ccccc3c21` (centres unmarked) [Example 108, 5-benzyl-N-(1-methyl-2-oxo-2,3,4,5-tetrahydro-1-[1,3]diazepino[1,2-b]indazol-3-yl)-4H-1,2,4-triazole-3-carboxamide], the inhibitory constant (Ki) under setting [1] was found to be 133 nM. Take `CN1C(=O)C(NC(=O)c2nnc(Cc3ccccc3)[nH]2)CCn2c1nc1ccccc12` (centres unmarked) [Example 109, 5-benzyl-N-(1-methyl-2-oxo-2,3,4,5-tetrahydro-1H-benzo[4,5]imidazo[1,2-a][1,3]diazepin-3-yl)-4H-1,2,4-triazole-3-carboxamide]: the Ki under setting [1] turned out to be 124 nM. Same read-out and setting: under `CN1C(=O)C(NC(=O)c2ncn(Cc3ccccc3)n2)CCn2nc3ccccc3c21` (centres unmarked) [Example 110, 1-benzyl-N-(1-methyl-2-oxo-2,3,4,5-tetrahydro-1H-[1,3]diazepino[1,2-b]indazol-3-yl)-1H-1,2,4-triazole-3-carboxamide] stands 65.2 nM. For the compound `CN1C(=O)C(NC(=O)c2ncn(Cc3ccccc3)n2)CCn2c1nc1ccccc12` (centres unmarked) [Example 111, 1-benzyl-N-(1-methyl-2-oxo-2,3,4,5-tetrahydro-1H-benzo[4,5]imidazo[1,2-a][1,3]diazepin-3-yl)-1H-1,2,4-triazole-3-carboxamide], the Ki under setting [1] worked out at 126 nM. In the case of `CN1C(=O)[C@@H](NC(=O)c2nnc3ccc(C(F)(F)C(F)(F)F)nn23)COc2ccccc21` [Example 114, (S)—N-(5-methyl-4-oxo-2,3,4,5-tetrahydrobenzo[b][1,4]oxazepin-3-yl)-6-(perfluoroethyl)-[1,2,4]triazolo[4,3-b]pyridazine-3-carboxamide], the Ki (read-out: RIP1 Ki) came out at 68.3 nM. `CN1C(=O)[C@@H](NC(=O)c2n[nH]c3ccc(C(F)(F)F)cc23)COc2ccccc21` [Example 115, (S)—N-(5-methyl-4-oxo-2,3,4,5-tetrahydrobenzo[b][1,4]oxazepin-3-yl)-5-(trifluoromethyl)-1H-indazole-3-carboxamide] yielded a Ki (RIP1 Ki) of 4.9 nM. For `CN1C(=O)[C@@H](NC(=O)c2nnc3n2CC(C(F)(F)C(F)(F)F)CC3)COc2ccccc21` (stereo partly drawn) [Example 116, N—((S)-5-methyl-4-oxo-2,3,4,5-tetrahydrobenzo[b][1,4]oxazepin-3-yl)-6-(perfluoroethyl)-5,6,7,8-tetrahydro-[1,2,4]triazolo[4,3-a]pyridine-3-carboxamide], under setting [1], the inhibition constant (Ki) is 371 nM. With `CN1C(=O)[C@@H](NC(=O)c2n[nH]c3ncc(C(F)(F)C(F)(F)F)cc23)COc2ccccc21` [Example 117, (S)—N-(5-methyl-4-oxo-2,3,4,5-tetrahydrobenzo[b][1,4]oxazepin-3-yl)-5-(perfluoroethyl)-1H-pyrazolo[3,4-b]pyridine-3-carboxamide], under setting [1], the Ki came to 5.6 nM. Turning to `CN1C(=O)[C@@H](NC(=O)c2nnn3c2CC2(CCCC2)C3)COc2ccccc21` [Example 118, (S)—N-(5-methyl-4-oxo-2,3,4,5-tetrahydrobenzo[b][1,4]oxazepin-3-yl)-4′H,6′H-spiro[cyclopentane-1,5′-pyrrolo[1,2-c][1,2,3]triazole]-3′-carboxamide], the Ki under setting [1] stood at 50.4 nM. Regarding `CN1C(=O)[C@@H](NC(=O)c2nnn3c2CC(c2ccccc2)C3)COc2ccccc21` (stereo partly drawn) [Example 119, N—((S)-5-methyl-4-oxo-2,3,4,5-tetrahydrobenzo[b][1,4]oxazepin-3-yl)-5-phenyl-5,6-dihydro-4H-pyrrolo[1,2-c][1,2,3]triazole-3-carboxamide], the inhibition constant (Ki) under setting [1] worked out at 201 nM. In the case of `CN1C(=O)[C@@H](NC(=O)c2nnn3c2CC2(CCCC2)C3)CCn2nccc21` [Example 120, (S)—N-(4-methyl-5-oxo-5,6,7,8-tetrahydro-4H-pyrazolo[1,5-a][1,3]diazepin-6-yl)-4′H,6′H-spiro[cyclopentane-1,5′-pyrrolo[1,2-c][1,2,3]triazole]-3′-carboxamide], under setting [1], the inhibition constant Ki was found to be 2100 nM. With `CN1C(=O)[C@@H](NC(=O)c2nnn3c2CC(c2ccccc2)C3)CCn2nccc21` (stereo partly drawn) [Example 121, N—((S)-4-methyl-5-oxo-5,6,7,8-tetrahydro-4H-pyrazolo[1,5-a][1,3]diazepin-6-yl)-5-phenyl-5,6-dihydro-4H-pyrrolo[1,2-c][1,2,3]triazole-3-carboxamide], the Ki under setting [1] stood at 8700 nM.
